Results on one compound are retold here after patent US20190077774A1, “PEROXISOME PROLIFERATOR-ACTIVATED RECEPTOR AGONISTS” (City of Hope, priority 2017, published 2019).

Entries after “also recorded” stand apart in the source; their conditions may differ.

For assay [1], the system named is C57Bl/6J female mice. As to the kind of experiment: Serum triglyceride and lipid effects in C57Bl/6J female mice. Format: in vivo. Here is the method: FIG. 5. Ligand Screening Results: DY series compounds and controls administered once to C57Bl/6J female mice at 8 weeks of age. Mice were treated at 3 mg/kg for all compounds except WY14643 (100 mg/kg). Compounds gavaged at 0900; mice sacrificed 24 h later. Ordered by degree of effect on triglyceride lowering. According to our screening test, DY series compounds reduce triglycerides.
(§1) Next, we would like to investigate the therapeutic potential of DY121 to see if it could be candidate for treating NAFLD/NASH. Note that the pathogenesis of NASH has not yet been fully elucidated so far; however, the ‘two-hit’ theory is widely accepted. The first hit is the accumulation of fatty acids in the liver to cause steatosis. […] The newly produced PPARα agonist DY121 and its analogs, as well as WY100=WY14643 and GW3 (GW7647), were evaluated in C57Bl/6J female mice for their ability to alter serum triglyceride, liver gene expression, and glucose. Fibric acid derivatives (100 mg/kg/day) was used as a control, WY100 (WY14, 643, 100 mg/kg/day), GW3 (GW7647-positive control, 3 mg/kg/day), DY121 (˜3 mg/kg/day), respectively. DY series compounds and controls administered once to C57Bl/6J female mice at 8 weeks of age. Mice were treated at 3 mg/kg for all compounds except WY14643 (100 mg/kg).

Assay [2] has as its system PPARα target genes in the liver. As to the kind of experiment: Liver gene expression of PPARα targets in treated mice (RT-qPCR). Format: in vivo.
Description: FIG. 6. […] Data in same order as triglyceride suppression (FIG. 5). apo CIII and LPL expression inversely correlate with triglyceride suppression for many, but not all, compounds. ACOX1 and Cyp4A3 expression correlate with triglyceride suppression for many, but not all, compounds.
The following oligonucleotide primers were used to amplify insertion sequences: for PPARα, FW-5′-[…]-3′ (SEQ ID NO:1) and Rev-5′-[…]-3′ (SEQ ID NO:2); for RXRα, FW-5′ […]-3′ (SEQ ID NO:3) and Rev-5′-[…]-3′ (SEQ ID NO:4). It has been well established that PPARα agonists fibrates reduce plasma triglycerides largely by inducing hepatic PPARα-mediated transcription of key proteins in hepatic long-chain fatty acid […], such as CPT1 (carnitine palmitoyltransferase-1). DY121 promoted the expression of PPARα, CPT1, and LPL involved in free fatty acid β-oxidation. The mRNA expressions of the PPARα-regulated genes CPT-Ia and ACADM were measured by real-time quantitative-PCR (RT-qPCR). […] A structural specificity of DY121 may be responsible for this regulation. PPARα is predominantly expressed in liver. PPARα modulates fatty acid catabolism in the liver. We next measured the mRNA expression of PPARα target genes in the liver. PPARα agonists exert their actions and attributed to the activation of PPARα which in turn effects an increase in LPL (lipoprotein lipase) gene expression and transrepression of apoC-III (apolipoprotein C-III). Activation of PPARα by its modulators can increase PPARα levels and activate PPARα pathways, leading to increased fatty-acid oxidation and reduction of oxidative stress. DY121 and its analogs induced the expression of PPARα-regulated genes involved in lipid, glucose, and cholesterol metabolism, such as ACOX1 (acyl-CoA oxidase) and Cyp4A3 (cytochrome P450 gene subfamily). Members of the CYP4A gene subfamily catalyze the oxygenation of biologically important fatty acids.
as §1, with “DY series compounds and controls administered once to C57Bl/6J female mice at 8 weeks of age. Mice were treated at 3 mg/kg for all compounds except WY14643 (100 mg/kg).” left out

Regarding `COc1ccc(Cn2c(CCCc3ccc(OC(C)(C)C(=O)O)cc3)nn(Cc3ccc(C)cc3)c2=O)cc1` [10a, 2-(4-{3-[4-(4-Methoxy-benzyl)-1-(4-methyl-benzyl)-5-oxo-4,5-dihydro-1H[1,2,4]triazol-3-yl]-propyl}-phenoxy)-2-methyl-propionic acid], the “hepatic TG accumulation” value in assay [1] (3 mg/kg DY121, WY14643 100 mg/kg) was “suppressed; also recorded: more apparent”. In assay [1] (DY121-treated mice vs control), the “serum triglyceride (TG) concentrations” value is listed as “significantly decreased”. In addition, in assay [2] (RT-qPCR), the “expression of PPARα, CPT1, and LPL” value is “promoted”; the “expression of PPARα-regulated genes such as ACOX1 and Cyp4A3” value was “induced”. Besides, the “liver CPT-Ia expression” value in assay [2] (chronic (>3 d) treatment (FIG. 17)) is recorded as “upregulated”. The LPL expression entry in assay [2] (liver, chronic treatment (FIG. 11)) is listed as “enhanced expression of LPL”. Also, the ACOX1 expression result in assay [2] (liver, chronic treatment (FIG. 12)) is “enhanced by PPARα activation, most consistently”. Also, the Cyp4A3 expression entry in assay [2] (liver, chronic treatment (FIG. 13)) is “consistently”. Also, the apoCIII expression entry in assay [2] (liver, chronic treatment up to 7 days (FIG. 11)) is listed as “significantly suppressed expression of apoCIII at each time point”. Further, the ACADM expression entry in assay [2] (time course (FIG. 18)) is “upregulates”. The “CYP4A3 mRNA in the liver” value in assay [2] (wild-type and PPARα knockout mice) is “enhanced levels of CYP4A3 mRNA in the liver of wild-type but not PPARα knockout mice”.
